In patent publication US20180271857A1, “TREATMENT OF CANCER BY INHIBITING EZH2 ACTIVITY” (University of Copenhagen, priority 2014, published 2018):

Experiments:
[1] = target: T1, Human PRC2 complex (EZH2, EED, SUZ12, RbAp48, AEBP2) (Homo sapiens, UniProt Q15910); assay: EZH2 methyltransferase activity within PRC2 complex, scintillation proximity assay (Example 2); type: biochemical; settings: determined as described in Example 2; inhibition of methyltransferase activity of EZH2 within PRC2
T1 construct: FLAG (N); made in house; host or cells: Sf9 insect cells
T1 sequence (Q15910 whole entry): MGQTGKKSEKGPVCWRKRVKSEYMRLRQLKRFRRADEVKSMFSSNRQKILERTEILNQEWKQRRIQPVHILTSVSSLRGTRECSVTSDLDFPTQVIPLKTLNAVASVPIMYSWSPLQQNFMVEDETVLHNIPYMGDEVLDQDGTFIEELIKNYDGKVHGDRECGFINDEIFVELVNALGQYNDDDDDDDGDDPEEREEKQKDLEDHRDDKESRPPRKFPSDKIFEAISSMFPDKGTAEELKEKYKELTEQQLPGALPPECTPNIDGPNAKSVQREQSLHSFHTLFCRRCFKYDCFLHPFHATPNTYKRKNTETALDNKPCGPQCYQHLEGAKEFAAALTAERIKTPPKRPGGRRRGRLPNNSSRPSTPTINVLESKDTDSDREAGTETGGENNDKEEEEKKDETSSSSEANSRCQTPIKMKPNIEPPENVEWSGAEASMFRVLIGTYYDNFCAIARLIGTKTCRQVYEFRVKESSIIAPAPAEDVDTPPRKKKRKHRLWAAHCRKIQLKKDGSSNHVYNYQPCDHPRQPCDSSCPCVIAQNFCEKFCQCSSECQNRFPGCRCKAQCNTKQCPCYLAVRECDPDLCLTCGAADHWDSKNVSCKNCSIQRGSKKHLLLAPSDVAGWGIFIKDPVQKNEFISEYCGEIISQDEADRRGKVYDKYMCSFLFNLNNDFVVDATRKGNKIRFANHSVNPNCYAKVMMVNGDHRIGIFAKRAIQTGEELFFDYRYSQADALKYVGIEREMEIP
T1 sequence (O75530 whole entry partner): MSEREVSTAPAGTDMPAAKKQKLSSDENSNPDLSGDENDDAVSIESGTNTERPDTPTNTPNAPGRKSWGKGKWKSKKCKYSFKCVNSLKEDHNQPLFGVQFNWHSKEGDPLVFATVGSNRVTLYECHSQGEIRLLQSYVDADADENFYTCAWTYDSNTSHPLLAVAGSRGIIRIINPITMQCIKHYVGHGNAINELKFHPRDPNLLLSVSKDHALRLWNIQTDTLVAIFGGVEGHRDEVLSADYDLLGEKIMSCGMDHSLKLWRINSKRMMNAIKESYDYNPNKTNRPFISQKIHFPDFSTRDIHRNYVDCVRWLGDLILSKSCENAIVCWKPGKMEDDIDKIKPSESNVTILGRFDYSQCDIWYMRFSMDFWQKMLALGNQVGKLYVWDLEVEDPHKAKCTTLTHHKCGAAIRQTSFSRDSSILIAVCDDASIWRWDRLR
T1 sequence (Q15022 whole entry partner): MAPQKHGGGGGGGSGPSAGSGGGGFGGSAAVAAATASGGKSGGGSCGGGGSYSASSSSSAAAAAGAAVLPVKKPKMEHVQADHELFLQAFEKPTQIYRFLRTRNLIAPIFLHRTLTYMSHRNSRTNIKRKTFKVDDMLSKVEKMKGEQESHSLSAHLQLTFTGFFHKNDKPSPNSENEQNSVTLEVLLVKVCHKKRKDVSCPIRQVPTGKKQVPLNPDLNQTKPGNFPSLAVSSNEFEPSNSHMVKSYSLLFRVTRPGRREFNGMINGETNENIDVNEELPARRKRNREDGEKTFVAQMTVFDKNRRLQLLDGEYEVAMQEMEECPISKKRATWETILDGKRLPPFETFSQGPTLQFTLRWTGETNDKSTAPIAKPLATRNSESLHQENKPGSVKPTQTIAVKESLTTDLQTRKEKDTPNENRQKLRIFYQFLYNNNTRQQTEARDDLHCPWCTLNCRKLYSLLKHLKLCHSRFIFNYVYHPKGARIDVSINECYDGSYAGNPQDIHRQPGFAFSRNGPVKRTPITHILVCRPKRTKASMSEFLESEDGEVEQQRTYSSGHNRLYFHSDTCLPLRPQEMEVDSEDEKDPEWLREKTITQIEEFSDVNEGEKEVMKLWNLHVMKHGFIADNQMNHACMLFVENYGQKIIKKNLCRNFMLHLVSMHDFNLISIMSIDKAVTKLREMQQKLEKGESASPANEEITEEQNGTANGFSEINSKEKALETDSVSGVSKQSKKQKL
T1 sequence (Q09028 whole entry partner): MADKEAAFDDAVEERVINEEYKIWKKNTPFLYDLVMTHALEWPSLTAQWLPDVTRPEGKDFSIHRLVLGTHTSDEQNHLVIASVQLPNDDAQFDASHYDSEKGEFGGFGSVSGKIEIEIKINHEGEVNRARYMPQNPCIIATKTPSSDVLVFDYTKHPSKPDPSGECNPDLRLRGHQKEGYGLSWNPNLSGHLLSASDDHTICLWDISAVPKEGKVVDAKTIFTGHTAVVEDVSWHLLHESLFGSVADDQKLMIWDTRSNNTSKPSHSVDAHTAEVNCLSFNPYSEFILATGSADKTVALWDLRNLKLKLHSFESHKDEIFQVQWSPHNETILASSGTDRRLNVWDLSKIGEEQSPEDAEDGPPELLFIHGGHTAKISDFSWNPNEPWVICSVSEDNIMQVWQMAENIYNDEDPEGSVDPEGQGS
T1 sequence (Q6ZN18 1-503 partner limits assumed): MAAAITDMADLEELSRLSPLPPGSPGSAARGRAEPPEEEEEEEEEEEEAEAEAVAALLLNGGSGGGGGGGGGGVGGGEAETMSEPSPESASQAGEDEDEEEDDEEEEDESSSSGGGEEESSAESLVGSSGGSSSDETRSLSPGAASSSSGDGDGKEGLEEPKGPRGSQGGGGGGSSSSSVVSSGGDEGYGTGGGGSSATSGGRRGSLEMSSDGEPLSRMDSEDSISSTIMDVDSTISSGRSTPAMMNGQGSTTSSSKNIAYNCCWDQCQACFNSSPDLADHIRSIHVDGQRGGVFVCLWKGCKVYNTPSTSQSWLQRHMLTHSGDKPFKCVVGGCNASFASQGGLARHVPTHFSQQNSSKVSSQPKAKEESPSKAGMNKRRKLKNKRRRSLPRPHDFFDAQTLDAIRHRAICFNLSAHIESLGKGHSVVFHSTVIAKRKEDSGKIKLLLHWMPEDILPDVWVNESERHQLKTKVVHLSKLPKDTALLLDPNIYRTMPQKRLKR
Experimental: Compounds can be evaluated for their ability to inhibit the methyltransferase activity of EZH2 within the PRC2 complex using the following assay. Human PRC2 complex is prepared by co-expressing each of the 5 member proteins (EZH2, EED, SUZ12, RbAp48, AEBP2) in Sf9 cells followed by co-purification. The proteins may be expressed as tagged versions, e.g. EZH2 may be expressed as FLAG-EZH2. The tag can be used for purification.
Enzyme activity is measured in a scintillation proximity assay (SPA) where a tritiated methyl group is transferred from 3H-SAM to a lysine residue on Histone H3 of a mononucleosome, purified from HeLa cells. Mononucleosomes are captured on SPA beads and the resulting signal is read on a ViewLux plate reader. SPA beads are e.g. available from Perkin Elmer, United States. This may be done as described in Garapaty-Rao et al, 2013 Identification of EZH2 and EZH1 small molecule inhibitors with selective impact on diffuse large B cell lymphoma cell growth. Chemistry and Biology 20, 1329-1339.
1. […]
1. Read the assay plates on the Viewlux Plate Reader utilizing the 613 nm emission filter with a 300 s read time. […]
Percent inhibition is calculated relative to the DMSO control for each compound concentration and the resulting values are fit using standard IC50 fitting parameters within the ABASE data fitting software package.

[2] = test system: PDGFB NSCs expressing either WT or K27M mutant H3.3; assay: Colony formation assay of PDGFB NSCs (FIG. 2C); type: cell-based, mouse; settings: 2000 cells plated, colonies after 9 days
[3] = test system: Ink4a−/−/Arf−/− NSCs expressing constitutive active epidermal growth factor receptor (*EGFR); assay: Cell proliferation of adult GBM model cells (FIG. 4); type: cell-based, mouse; settings: inhibitor vs DMSO
From the text: Cell proliferation of DMSO or EZH2 inhibitor treated Ink4a/Arf−/−*EGFR NSCs.
A mouse model representing adult classical subtype of GBM subtypes was investigated.

[4] = test system: PDGFB NSCs expressing either WT or K27M mutant H3.3; settings: 3 μM inhibitor vs DMSO
From the text: Cells were harvested and counted using Neubauer chamber every 3-4 days.

EZH2 = settings: PDGFB NSCs, different concentrations for 3 days, FIG. 2A
[5] = test system: Ezh2 expression in Ezh2f/f; PDGFB/H3K27M NSCs; assay: Immunoblot of Ezh2 after 4-OHT treatment of Ezh2f/f; PDGFB/H3K27M NSCs (FIG. 3a); type: cell-based, mouse; settings: CreER PDGFB/H3K27M NSCs, 8 days of treatment (FIG. 3a)
Experimental: Cells were trypsinized, washed once with 1× phosphate buffer saline (PBS) and lysed in TOPEX+ buffer (300 mM NaCl, 50 mM Tris-HCl pH7.5, 0.5% Triton X-100, 1% SDS, 1 mM DTT, Aprotinin, Leupeptin, 0.1 mM phenylmethanesulfonyl fluoride (PMSF) and 33.33 U/mL Benzonase (EMD-Novagen)). Protein concentrations in the cell lysates were measured by Bradford reagent (Bio-Rad). Cell lysates were separated by SDS-PAGE and transferred to nitrocellulose membrane. The antibodies used for the immunoblotting were antibodies specifically recognising H3K27me3 (C36B11, Cell Signaling), H3K27me2, p16^Ink4a, p53, H3K27M, actin, H3 and Ezh2.

[6] = test system: Ezh2f/f; PDGFB/H3K27M NSCs injected into the mouse pons; assay: Survival of mice injected in the pons with pre-treated Ezh2f/f; PDGFB/H3K27M NSCs (FIG. 3b); settings: 10^5 cells pre-treated with 4-OHT vs ethanol
From the text: Briefly, mice were anesthetized using isoflurane (1.5 L O2/minute and 2.5% isoflurane) and placed in a stereotactic device (David Kopf instruments). […] The hole in the skull was closed with bonewax (Agnthos) and the scalp was closed using clips (Agnthos). The clips were removed after one week of injection.
PDGFB/H3K27M NSCs in mice with Ezh2^f/f; CreER (Ezh2^f/f;PDGFB/H3K27M) background were generated. In these mice Ezh2 could be conditionally deleted.

[7] = test system: Ezh2f/f; PDGFB/H3K27M NSCs injected into the mouse pons; assay: Survival of mice bearing Ezh2f/f; PDGFB/H3K27M NSC tumours treated in vivo (FIG. 3c); settings: 10^4 cells injected into the pons, treatment after 3 weeks, vs oil-treated control

Row | Molecule | colonies formed [2] | proliferation [3] | proliferation [4] | further results
1 | GSK343 | formed fewer colonies | did not affect their proliferation | reduced proliferation | IC50 [1]: 5 nM; EZH2 inhibition (H3K27me3 and H3K27me2 levels by immunoblot) (EZH2): potent and highly selective EZH2 inhibitors
2 | 4-hydroxytamoxifen [4-OHT] | – | – | – | Ezh2 expression [5]: complete loss of Ezh2; survival of mice [6]: significantly longer survival
3 | CCN(c1cc(-c2ccc(CN3CCOCC3)cc2)cc(C(=O)NCc2c(C)cc(C)[nH]c2=O)c1C)C1CCOCC1 [EPZ6438] | formed fewer colonies | did not affect their proliferation | reduced proliferation | –
4 | CC/C(=C(\c1ccccc1)c1ccc(OCCN(C)C)cc1)c1ccccc1 [Tamoxifen, tamoxifen] | – | – | – | survival of mice [7]: significantly longer survival
